# Source: US20020055512A1, “Compositions for delivery of a cortisol antagonist” (CORTENDO AB., priority 2000, published 2002)
# Test: Solubility of ketoconazole in lipid excipients (observation of undissolved crystals)
# Assay type: physicochemical
# Details: ambient room temperature; estimated
# Method: The solubility of ketoconazole in glycerol monooleate was assessed at 37° C. according to the following method. 2 g samples of ketoconazole (USP) and glycerol monooleate were mixed together in various proportions and put on a magnetic stirrer at 37° C. Samples containing 1, 3 and 5 wt. % of ketoconazole were investigated for the observation of ketoconazole crystals. Samples containing 1 wt. % ketoconazole were completely dissolved after less than 18 h but more than 2 h. Samples containing 3 wt % ketoconazole were almost homogeneous after 48 h, after which no further change of the sample took place. […] Thus, at 37° C. ketoconazole has a limited solubility in glycerol monooleate. It is estimated to be between 1 and 3 wt. %.
# The solubility of ketoconazole in oleic acid was assessed at ambient room temperature using the method described in Example 1. Samples containing 5, 10, 15 and 33 wt. % of ketoconazole were mixed with oleic acid and the appearance of undissolved ketoconazole was investigated after 24 and 48 h. After 24 hours samples containing 5 wt. % ketoconazole were completely dissolved and after 48 h samples containing 10 wt. % of ketoconazole were completely homogenous and all ketoconazole was dissolved. Thus the solubility of ketoconazole in oleic acid is estimated to be about 10 wt. %.
structure (smiles),measurement,value
"CC(=O)N1CCN(c2ccc(OCC3COC(Cn4ccnc4)(c4ccc(Cl)cc4Cl)O3)cc2)CC1 (stereo not shown) [ketoconazole, Ketoconazole]",solubility of ketoconazole in oleic acid,about 10 wt. %
